Read-outs that look alike come from different tables or passages of the source.
Tests used:
[1] = test system: 25 different bacterial species, 20 different Listeria monocytogenes cultivars, three different fungi; conditions: singly or in combination, in the percentages listed by the ISO; cited from earlier work
mouse = conditions: cited from earlier work
adult human = test: LD50, adult human (equivalent / reported); conditions: 143 lb (65 kg) adult human

Compound	Bioactivity (antibacterial, antifungal, anti-oxidant) [1]	LD50 (mouse; intraperitoneal administration) [mg/kg]	LD50 (mouse; intravenous) [mg/kg]	LD50 equivalent for adult human (adult human; intraperitoneally injected) [milligrams]	LD50 equivalent for adult human (adult human; intravenously injected) [mg]
CC(C)=CCCC(C)CCO (stereo not drawn) [citronellol]	very potent	–	–	–	–
CC(C)=CCC/C(C)=C/CO [geraniol]	very potent	–	–	–	–
CCC(C)CC(C)N (stereo not drawn) [methylhexaneamine, Methylhexaneamine]	–	185	39	978	206

Reference: US20130216634A1, “Herbal Supplement Prepared From Pelargonium Citronellum” (priority 2011, published 2013)
